Test results: patent US20220289791A1, “LACTATE DEHYDROGENASE INHIBITOR POLYPEPTIDES FOR USE IN THE TREATMENT OF CANCER” (UNIVERSITÉ CATHOLIQUE DE LOUVAIN, priority 2019, published 2022)
*1 amine or outer side, *2 acyl side, *3 side chain or, on linkers, in order; H or OH if unused. Where a SMILES comes first, the peptide text is derived from it. Bridges are numbered along the chain shown (N, C = ends). C6F4(1,4-diyl) = Fc1c(F)c([*:2])c(F)c(F)c1[*:1]

Tests used:
truncated LDHB (LDHBtr) = truncated LDHB (LDHBtr) (Homo sapiens, UniProt P07195); test: Microscale thermophoresis (MST), Example 2, macrocycles against truncated LDHB; assay type: binding; settings: MST traces at 10 s to 20 s on time
Chain of truncated LDHB (LDHBtr) (P07195 21-334): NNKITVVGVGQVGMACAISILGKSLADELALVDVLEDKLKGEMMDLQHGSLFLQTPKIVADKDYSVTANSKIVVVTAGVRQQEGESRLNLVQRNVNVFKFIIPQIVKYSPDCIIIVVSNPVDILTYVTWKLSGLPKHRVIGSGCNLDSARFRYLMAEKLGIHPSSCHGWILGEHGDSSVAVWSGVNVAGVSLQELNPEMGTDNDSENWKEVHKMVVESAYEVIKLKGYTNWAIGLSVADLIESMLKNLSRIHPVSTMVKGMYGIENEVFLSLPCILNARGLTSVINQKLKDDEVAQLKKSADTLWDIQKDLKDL
Description: MST measurements were performed on a Nanotemper Monolith NT.115 instrument (NanoTemper Technologies®) using Red-dye-NHS fluorescent labeling. Each LDH sample, purified to homogeneity, was labeled with the Monolith Red-dye-NHS 2nd generation labeling dye (NanoTemper Technologies®), according to the manufacturer's instructions. Measurements were performed in 50 mM sodium phosphate, pH 7.6, and 100 mM NaCl containing 0.05% Tween-20 in premium-treated capillaries (NanoTemper Technologies®). The final concentrations of either labeled protein in the assay were 100 nM. The ligands (NADH and peptides) were titrated in 1:1 dilutions following manufacturer's recommendations. All binding reactions were incubated for 5 min at room temperature after loading into capillaries. Experiments were performed in triplicates using 40% LED power, medium MST power, Laser On time 20 s and Laser Off time 3 s. Peptides were evaluated for their thermophoretic pattern, and Kd's were extracted from raw data at a 10 to 20 s MST on time according to manufacturer's instructions. Regarding interaction of 7 with LDH5, Kd was extracted from the raw fluorescence. A denaturation test was performed accordingly to manufacturer recommendation and excluded any nonspecific spectral interaction between 7 and the red-dye. All Kd's of interacting macrocycles and peptides were obtained in triplicate and corrected by taking into account the molecular weight of the TFA counter ion.

human LDH1 = human LDH1 (Homo sapiens, UniProt P07195); test: nanoDSF thermal denaturation of LDH1; assay type: binding
Chain of human LDH1 (P07195 whole entry): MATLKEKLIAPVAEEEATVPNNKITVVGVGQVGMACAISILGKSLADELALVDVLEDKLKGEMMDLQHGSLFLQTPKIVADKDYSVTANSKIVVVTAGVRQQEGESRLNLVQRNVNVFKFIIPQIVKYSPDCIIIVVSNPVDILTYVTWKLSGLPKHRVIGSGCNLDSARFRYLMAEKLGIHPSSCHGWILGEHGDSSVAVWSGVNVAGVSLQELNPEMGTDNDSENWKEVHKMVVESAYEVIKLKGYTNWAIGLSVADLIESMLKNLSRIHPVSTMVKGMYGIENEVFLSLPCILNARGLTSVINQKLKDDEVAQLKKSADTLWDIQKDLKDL

human LDH5 = molecular target: T1, human LDH5 (Homo sapiens, UniProt P00338); test: nanoDSF thermal denaturation of LDH5; assay type: binding
T1 construct: purchased Abnova

dimeric model of LDH = dimeric model of LDH (Homo sapiens, UniProt P07195); test: nanoDSF thermal denaturation of dimeric LDH model; assay type: binding
Chain of dimeric model of LDH (P07195 21-334): as the sequence (P07195 21-334) above

rabbit LDH5 (rLDH5) = molecular target: T2, rabbit LDH5 (rLDH5) (Oryctolagus cuniculus, UniProt P13491); test: Denaturation assay: rLDH5 fluorescence recovery after acidic exposure; assay type: biochemical; settings: 200 nM rLDH5, 50 μM peptide, pH 5 then neutral pH
T2 construct: purchased Sigma-Aldrich
Description: Rabbit LDHA commercial solution (Sigma-Aldrich®) in an ammonium sulfate suspension (pH-7, 3.2 M) was first diluted to 1 mg/ml in a solution of NaCl 200 mM and then dialyzed at 4° C. 2×2 h against 200 mM NaCl. The stock solution of 1 mg/ml was then diluted to 30 μg/ml (800 nM) in NaCl 20 0 mM to give the assay solution. Assay solution was mixed 1:1 with acetate-chloride buffer (20 mM Acetic acid/Acetate, 180 mM NaCl, 1 mM DTT pH 5) and stored on ice for 30 minutes. Samples were then removed from ice and let warm up for 2 minutes. The acidic solution was then diluted 1:1 with a 250 mM phosphate buffer (pH 7.6) containing or not the inhibitory peptide to yield a 7.5 μg/ml (200 nM) final concentration of re-associating LDHA. Samples of the resulting solutions were then subjected to kinetic experiments of the recovery of intrinsic fluorescence (Exc=286 nm, Em=350 nm, 10′, rt).
An experiment was thus designed to follow the recovery of LDH tetramers after a dissociation step initiated by acidic conditions. […] Monitoring of the rLDH5 tetrameric state was performed by following its intrinsic tryptophan fluorescence: 6 tryptophan residues can be found in each rLDHA monomer, three of them being located at the dimer-dimer interface. As the tryptophan quantum yield decreases in a polar environment, dimeric LDHs show very weak tryptophan fluorescence compared to the tetrameric form. […] Such decay can be compared to the difference in tryptophan fluorescence between tetrameric LDH1 and dimeric LDHBtr.

LDHBtr = LDHBtr (Homo sapiens, UniProt P07195); test: Intrinsic fluorescence assay on dimeric LDHBtr; assay type: biochemical
Chain of LDHBtr (P07195 21-334): as above
Description: Full tryptophan fluorescence spectra were recorded using an excitation wavelength of 286 nm and recording the emission spectra from 320 nm to 400 nm at room temperature. Raw fluorescence of every experiments was further subtracted to a corresponding control experiment without the protein. Experiments were performed in a 50 mM sodium phosphate and 100 mM NaCl, pH 7.6, buffer. For LDH dissociation into subunits, increasing amounts of guanidinium/HCl were put in contact with the studied proteins (1.3 μM), and fluorescence spectra were recorded afterwards. Guanidinium/HCl concentrations ranged from 0.3 M to 2 M.

[1] = test system: Mia Paca-2 human pancreatic cancer cells; test: Seahorse OCR and ECAR measurement; assay type: cell-based; settings: 200 μM, 4 h incubation
Description: Macrocyclic peptide MP7 (SEQ ID NO: 61) was evaluated at 200 μM against Mia Paca-2 human pancreatic cancer cells (ATCC®).
The oxygen consumption rate (OCR) and extracellular acidification rate (ECAR) were measured on a Seahorse XF96 analyzer (Agilent®) with a combination of XF cell mito stress kit (Agilent®) and 2-deoxy-D-glucose (2DG; Sigma Aldrich®). Seahorse experiments were performed using 10,000 cells/well in DMEM medium with 10 mmol/L of D-glucose and 1 mmol/L of L-Glutamine Cells were incubated for 1 h in a CO2-free incubator before analysis. […] Oximetry before the addition of any agent provided the basal respiration rate of the cells; ATP-linked reparation was determined after the addition of 1 μM of oligomycin and the maximal respiration rate of the cells after the addition of 1 μM of FCCP. All data were normalized to cell numbers measured right before oximetry using a SpectraMax miniMax 300 imaging cytometer (Molecular Devices®). Macrocyclic peptide MP7 in PBS or PBS alone (control experiment) were added directly into the medium and incubated with Mia Paca-2 cells during 4 h before conducting Seahorse experiments on the medium composed of the Mia Paca-2 cells with or without macrocyclic peptide MP7.

## CC[C@H](C)[C@H](NC(=O)[C@H](CC(C)C)NC(=O)[C@H](CCCCN)NC(=O)[C@@H]1CSc2c(F)c(F)c(c(F)c2F)SC[C@H](N)C(=O)N[C@@H]([C@@H](C)O)C(=O)N[C@@H](CC(C)C)C(=O)N[C@@H](CCCCN)C(=O)N1)C(N)=O [MP7, CTLKCKLI] (H-CTLKCKLI-NH2; linker 1-5 via C6F4(1,4-diyl); N-terminus assumed)
Truncated LDHB (LDHBtr)
  Kd: 11 µM
Human LDH1; LDH1, MP7 at 400 μM
  ΔTm at 400 µM: -1.5 °C
Human LDH1; nanoDSF
  effect on LDH1 stability: induced a destabilizing conformational change
Human LDH5; LDH-5 tetramer, MP7 at 400 μM
  ΔTm at 400 µM: -5 °C
Human LDH5; nanoDSF
  effect on LDH5 stability: induced a destabilizing conformational change
Dimeric model of LDH
  destabilization of dimeric model of LDH: did not induce such destabilization
Rabbit LDH5 (rLDH5)
  LDH5 fluorescence recovery after acidification: significantly interfered
LDHBtr
  decay of LDHBtr fluorescence spectrum: did not induce a comparative decay
[1]
  glycolytic flux (ECAR): increase
  mitochondrial oxygen consumption rate (OCR): strong decrease
